According to US7662851B2, “Use of specific cyklolignans” (Axelar AB, priority 2001, dated 2010):
pEC50: −log10 of the molar value. Like-named read-outs stand apart in the source and are kept apart here.

Experiments:
[1] = tested on: platelet-derived growth factor receptor (PDGFR); test: Tyrosine phosphorylation of PDGFR in intact FM55 melanoma cells; assay type: cell-based; details: 0.05 μM, 1 h
Protocol: (§1) Cells were cultured to subconfluency in 6-cm plates, and then fresh medium containing 10% FBS and the desired compounds were added for 1 h. The cells were then lyzed and subjected to immunoprecipitation using specific antibodies. Immunoprecipitates were resolved by sodium dodecyl sulphate polyacrylamide gel electrophoresis (SDS-PAGE) and transferred to nitro-cellulose membranes and incubated with anti-phosphotyrosine antibody. Antibodies to actin (in cell extract) or IGF-1R beta subunit were used as loading controls. After detection the films were scanned for quantification.
(§2) FM55 melanoma cells were cultured in the same way as described in Experiment 1. When reaching a density of 65,000 cells/cm^2 in the dishes, they were treated for 1 h with 0 (control) and 0.05 μM of picropodophyllin and podophyllotoxin, respectively. The cells were then isolated and subjected to immunoprecipitation of the IGF-1R, fibroblast growth factor receptor (FGFR), platelet-derived growth factor receptor (PDGFR), epidermal growth factor receptor (EGFR), insulin receptor (IR) and insulin substrate-1 (IRS-1) using antibodies to respective molecules. IRS-1 is a substrate of IGF-1R, and therefore its phosphorylation is dependent on phosphorylated IGF-1R. Gelelectrophoresis, Western blotting and quantification of the different signals were performed as described above.

[2] = molecular target: T1, epidermal growth factor receptor (EGFR) (Homo sapiens, UniProt P00533); test: Tyrosine phosphorylation of EGFR in intact FM55 melanoma cells; assay type: cell-based; details: 0.05 μM, 1 h
T1 construct: endogenous in cells; host or cells: FM55 melanoma cells
Protocol: as §1, §2

insulin receptor (IR) = molecular target: T2, insulin receptor (IR) (Homo sapiens, UniProt P06213); test: Tyrosine phosphorylation of IR in intact FM55 melanoma cells; assay type: cell-based; details: 0.05 μM, 1 h
T2 construct: endogenous in cells; host or cells: FM55 melanoma cells
Protocol: as §1, §2

[3] = tested on: MCF-7 breast cancer cell line; test: Cell viability (XTT), MCF-7; assay type: cell-based; details: Homo sapiens, read-out: EC50 for cell viability
Protocol: (§3) Cell proliferation kit II (Roche Inc.) is based on colorimetric change of the yellow tetrazolium salt XTT in orange formazan dye by the respiratory chain of viable cells (Roehm, N W, et al., J Immunol Methods 142:257-265, 1991). Cells seeded at a concentration of 5000/well in 100 μl medium in a 96-well plate were treated with different drugs in the given concentration. After 24 or 48 h the cells were incubated, according to the manufacturer's protocol, with XTT labelling mixture. After 4 h the formazan dye is quantified using a scanning multiwell spectrophotometer with a 495-nm filter. The absorbance is directly correlated with the number of viable cells. The standard absorbance curve was drawn by means of untreated cells seeded at a concentration of from 1000 to 10 000 cells/well with an increasing rate of 1000 cells/well. All standards and experiments were performed in triplicates.
(§4) 12 different types of cell lines were seeded in 96-well plates (medium volume in a well was 100 μl), at a concentration of 10,000 cells/cm^2 in Minimal Essential Medium supplemented with fetal calf serum. When the cells had reached a concentration of 65,000 cells/cm^2, they were treated with different doses of podophyllotoxin and picropodophyllin for 48 h. Cell viability was then assayed (see above). […]

[4] = tested on: PC-3 prostatic carcinoma cell line; test: Cell viability (XTT), PC-3; assay type: cell-based; details: Homo sapiens, read-out: EC50 for cell viability
Protocol: as §3, §4

[5] = tested on: RD-ES Ewing's sarcoma cell line; test: Cell viability (XTT), RD-ES; assay type: cell-based; details: Homo sapiens, 48 h, read-out: EC50 for cell viability
Protocol: as §3, §4

[6] = tested on: P6 cells (fibroblasts with overexpressed IGF-1R); test: Cell viability (XTT), P6; assay type: cell-based, murine; details: Mus musculus, Fibroblast, 48 h, read-out: EC50 for cell viability
Protocol: as §3, §4

[7] = Local toxicity, subcutaneous osmotic pumps in nude mice; assay type: in vivo; parameters: key to Local toxicity: effects on skin and subcutaneous tissue: 0: no tissue reaction; *: light tissue reaction with hyperemia and mild inflammation; **: moderate tissue reaction with strong inflammation; ***: strong tissue reaction with necrosis and bleedings; details: 7 days; for Local tissue reactions: subcutaneous osmotic pump loaded with 0.25 mg
Protocol: Control mice were treated with the solvent. 3-6 animals were treated in each group.
The first set of experiments was carried out to investigate possible local and systemic toxic effects of podophyllotoxin, deoxypodophyllotoxin and picropodophyllin on nude mice. In the first experiment osmotic pumps loaded with either drug-free solvent, podophyllotoxin (0.25 mg), deoxypodophyllotoxin (0.25 mg) or picropodophyllin (0.25 mg) were implanted subcutaneously in the flank region. The drugs are delivered subcutaneously with a constant flow of 0.6 μl/h over 7 days. The volume of the pumps was 100 μl. After 7 days the mice were killed and the skin and subcutaneous tissue adjacent to the outlet of the pumps were analyzed and scored for tissue reactions by an experienced pathologist. There were 3 mice in each group.

HaCaT cells = test: Cell viability of HaCaT cells (psoriasis model); assay type: cell-based; details: Homo sapiens, 48 h, read-out: Cell viability
Protocol: Keratinocytes (HaCaT cells) were provided by and tested in collaboration with Professor Mona Bäckdahl, Department of Dermatology, Karolinska Hospital, Stockholm, Sweden. The HaCaT cell line is a spontaneously immortalized human keratinocyte cell line (Boukamp P, et al., J Cell Biol 106: 761-771, 1988), which is frequently used as an experimental model for psoriasis (Wraight, C. J., et al. Nat Biotechnol 18: 521-526, 2000.) HaCaT cells were cultured in Dulbecco's Modified Eagle's Medium containing 10% fetal bovine serum, glutamine, benzylpenicillin and streptomycin.
as §3, with “All standards and experiments were performed in triplicates.” left out

T2 sequence (P06213 28-1382): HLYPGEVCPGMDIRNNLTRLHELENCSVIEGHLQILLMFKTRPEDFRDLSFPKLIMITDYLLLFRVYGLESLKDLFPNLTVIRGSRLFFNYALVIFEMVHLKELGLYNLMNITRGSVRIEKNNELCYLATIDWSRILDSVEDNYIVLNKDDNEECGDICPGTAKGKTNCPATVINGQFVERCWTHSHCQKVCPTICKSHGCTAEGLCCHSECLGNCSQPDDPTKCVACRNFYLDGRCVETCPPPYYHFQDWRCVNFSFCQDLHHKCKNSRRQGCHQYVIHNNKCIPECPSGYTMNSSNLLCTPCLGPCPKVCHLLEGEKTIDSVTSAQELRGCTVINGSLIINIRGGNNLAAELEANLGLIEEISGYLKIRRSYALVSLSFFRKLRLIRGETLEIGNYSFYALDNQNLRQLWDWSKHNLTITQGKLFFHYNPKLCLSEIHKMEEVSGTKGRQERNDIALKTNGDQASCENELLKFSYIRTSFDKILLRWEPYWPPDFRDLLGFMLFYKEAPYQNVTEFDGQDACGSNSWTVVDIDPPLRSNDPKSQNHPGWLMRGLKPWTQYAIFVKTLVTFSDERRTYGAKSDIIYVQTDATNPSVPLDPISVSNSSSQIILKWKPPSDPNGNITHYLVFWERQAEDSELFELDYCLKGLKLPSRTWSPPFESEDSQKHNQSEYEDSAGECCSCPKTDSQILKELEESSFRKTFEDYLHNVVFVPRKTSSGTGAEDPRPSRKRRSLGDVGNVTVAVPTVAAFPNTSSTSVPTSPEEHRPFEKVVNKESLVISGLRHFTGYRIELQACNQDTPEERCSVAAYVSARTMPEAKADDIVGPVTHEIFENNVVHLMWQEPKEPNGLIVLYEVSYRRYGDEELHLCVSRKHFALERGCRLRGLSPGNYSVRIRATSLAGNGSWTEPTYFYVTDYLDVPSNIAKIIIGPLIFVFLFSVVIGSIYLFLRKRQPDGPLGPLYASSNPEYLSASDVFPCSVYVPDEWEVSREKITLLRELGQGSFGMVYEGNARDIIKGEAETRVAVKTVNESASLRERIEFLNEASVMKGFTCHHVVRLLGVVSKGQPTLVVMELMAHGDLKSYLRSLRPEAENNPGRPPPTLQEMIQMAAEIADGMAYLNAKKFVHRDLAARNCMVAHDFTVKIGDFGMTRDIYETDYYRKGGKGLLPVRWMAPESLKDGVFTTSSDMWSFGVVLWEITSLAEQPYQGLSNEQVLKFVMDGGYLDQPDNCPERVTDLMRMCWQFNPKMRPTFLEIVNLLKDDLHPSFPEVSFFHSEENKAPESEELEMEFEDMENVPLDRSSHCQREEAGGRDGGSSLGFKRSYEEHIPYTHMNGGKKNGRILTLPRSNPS
T1 sequence (P00533 25-1210): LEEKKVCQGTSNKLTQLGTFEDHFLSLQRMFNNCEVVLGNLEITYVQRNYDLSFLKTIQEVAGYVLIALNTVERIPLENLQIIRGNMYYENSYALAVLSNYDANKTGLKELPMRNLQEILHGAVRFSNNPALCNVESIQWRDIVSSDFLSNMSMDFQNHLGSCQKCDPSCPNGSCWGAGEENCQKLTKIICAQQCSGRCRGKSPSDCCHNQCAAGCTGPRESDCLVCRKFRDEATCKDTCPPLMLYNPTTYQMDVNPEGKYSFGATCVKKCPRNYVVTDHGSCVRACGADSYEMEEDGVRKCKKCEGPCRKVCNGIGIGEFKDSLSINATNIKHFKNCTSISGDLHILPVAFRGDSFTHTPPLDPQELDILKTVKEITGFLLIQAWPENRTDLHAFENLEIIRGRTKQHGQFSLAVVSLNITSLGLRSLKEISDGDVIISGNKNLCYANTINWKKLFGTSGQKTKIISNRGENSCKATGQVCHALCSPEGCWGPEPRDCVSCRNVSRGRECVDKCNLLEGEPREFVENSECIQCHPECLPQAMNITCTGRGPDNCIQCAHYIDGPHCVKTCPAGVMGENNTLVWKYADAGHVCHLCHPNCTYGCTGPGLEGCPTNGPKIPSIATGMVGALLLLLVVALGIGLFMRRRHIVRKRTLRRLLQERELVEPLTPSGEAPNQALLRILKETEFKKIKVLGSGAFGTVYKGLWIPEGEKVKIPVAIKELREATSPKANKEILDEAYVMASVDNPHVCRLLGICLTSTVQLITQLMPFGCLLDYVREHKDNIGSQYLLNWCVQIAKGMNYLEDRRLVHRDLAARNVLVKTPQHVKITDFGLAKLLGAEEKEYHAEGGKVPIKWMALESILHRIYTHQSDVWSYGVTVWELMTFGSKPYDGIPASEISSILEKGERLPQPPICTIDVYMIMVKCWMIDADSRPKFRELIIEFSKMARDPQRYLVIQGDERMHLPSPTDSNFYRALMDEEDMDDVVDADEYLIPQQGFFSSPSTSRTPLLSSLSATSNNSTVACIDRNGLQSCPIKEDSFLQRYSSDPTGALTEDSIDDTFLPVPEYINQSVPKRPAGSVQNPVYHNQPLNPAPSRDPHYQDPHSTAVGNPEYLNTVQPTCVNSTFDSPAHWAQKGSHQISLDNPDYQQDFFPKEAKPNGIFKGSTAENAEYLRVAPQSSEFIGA

Structure (SMILES): COc1cc([C@@H]2c3cc4c(cc3[C@H](O)[C@H]3COC(=O)[C@@H]23)OCO4)cc(OC)c1OC [Picropodophyllin, picropodophyllin]
- Level of phosphorylation in intact cells, substrate PDGFR [1]: 104 % OD
- Level of phosphorylation in intact cells, substrate EGFR [2]: 106 % OD
- Level of phosphorylation in intact cells, substrate IR (insulin receptor (IR)): 100 % OD
- pEC50 ([3]; MCF7, MCF-7, 48 h): 7.05
- pEC50 ([4]; PC-3, 48 h): 7.05
- pEC50 [5]: 7.00
- pEC50 ([6]; P6 (fibroblasts with overexpressed IGF-1R)): 7.70
- Local tissue reactions [7]: no visible reactions
- Local toxicity: effects on skin and subcutaneous tissue ([7]; subcutaneous osmotic pump, 7 mg/kg/d): 0
- viability at 0.05 µM (HaCaT cells; HaCaT cells, 0.05 μM, control 100): 35%

Structure (SMILES): COc1cc([C@@H]2c3cc4c(cc3[C@H](O)[C@H]3COC(=O)[C@H]23)OCO4)cc(OC)c1OC [Podophyllotoxin, podophyllotoxin]
- Level of phosphorylation in intact cells, substrate PDGFR [1]: 100 % OD
- Level of phosphorylation in intact cells, substrate EGFR [2]: 107 % OD
- Level of phosphorylation in intact cells, substrate IR (insulin receptor (IR)): 101 % OD
- pEC50 ([3]; MCF7, 48 h): 7.15
- pEC50 ([4]; 48 h): 7.22
- pEC50 [5]: 7.00
- pEC50 [6]: 7.52
- Local tissue reactions [7]: severe tissue reactions with necrosis, bleeding and inflammation
- viability at 0.05 µM (HaCaT cells; HaCaT): 30%
